Data on 56 compounds can be found in patent publication US20010049374A1 (priority 1997, published 2001).

For the test, the target named is T1, urokinase enzyme Abbokinase (Homo sapiens, UniProt P00749).
T1 construct: purchased Abbott Laboratories, Abbott Park, Ill
In words: Determination of urokinase inhibition (Abbokinase, chromogenic substrate S-2444). In kind it is biochemical. Conditions: substrate S-2444 at 200 μM, enzyme 2-3 nM, pH 7.4, 405 nm.

The mark [1] stands for this setting: Inhibitory potency against urokinase, read-out: IC50.
The mark [2] stands for this setting: IC50, Inhibitory potency against urokinase.

pIC50: −log10 of the molar value. Read-outs that look alike come from different tables or passages of the source.

Experimental: Several vials were reconstituted as directed on the vial, aliquoted and stored frozen. The enzyme was further diluted in assay buffer and 10 μl was used in the assay. Enzyme concentration in the assay was 2-3 nM. […] The Spectromax® calculated the reaction rates which were used to calculate percent inhibition of the compounds of this invention versus the reaction rate of the enzyme in the absence of any inhibitor. The Ki's of the inhibitors were calculated from the percent inhibition and previously established Km.

Consider “N-[6-(Aminoiminomethyl)-2-naphthalenyl]-4-(aminomethyl)benzamide [Example 77]”, for which, under setting [1], the pIC50 was 6.64. Same read-out and setting: for `CC(C)(C)OC(=O)NCC1CCC(C(=O)Nc2ccc3cc(C(=N)N)ccc3c2)CC1` (centres unmarked) [Example 137, 1,1-dimethylethyl [[4-[[[6-(aminoiminomethyl)-2-naphathalenyl]amino]carbonyl]-cyclohexyl]methyl]carbamate] the value was 6.09; for “6-(aminoiminomethyl)-N-(4-ethylphenyl)-2-naphthalenecarboxamide [Example 142]”, 6.27. Regarding `N=C(N)c1ccc2cc(-c3ccccc3CO)ccc2c1` [Example 51, 6-[2-(Hydroxymethyl)phenyl]-2-naphthalenecarboximidamide], the pIC50 under setting [2] is 5.33. Still for that read-out and setting: for `N=C(N)c1ccc2ccc(OCCO)c(I)c2c1` [Example 29, 7-(2-Hydroxyethoxy)-8-iodo-2-naphthalenecarboximidamide] the value was 5.60.

Consider `[H]/N=C(/N)c1ccc2cc(C=Cc3cccc(CO)c3)ccc2c1` [Example 96, (E)-6-[2-[(3-hydroxymethyl)phenyl]ethenyl]-2-naphthalenecarboximidamide], for which the pIC50 under setting [1] was 6.07.

`CSc1ccccc1-c1ccc2cc(C(=N)N)ccc2c1` [Example 57, 6-[2-(Methylthio)phenyl]-2-naphthalenecarboximidamide] had a pIC50 under setting [2] of 5.47. In the case of “N-[7-(aminoiminomethyl)-1-naphthalenyl)acetamide [Example 15]”, under setting [1], the pIC50 was 5.60. As to `COc1ccc2ccc(C(=N)N)cc2c1I` [Example 54, 7-Methoxy-8-iodo-2-naphthalenecarboximidamide], the pIC50 under setting [2] is 5.57. On to “6-(aminoiminomethyl)-N-(6-methoxy-3-pyridinyl)-2-naphthalenecarboxamide [Example 187]”, for which the pIC50 under setting [1] was 6.21. `N=C(N)c1ccc2cc(-c3ccccc3C=O)ccc2c1` [Example 50, 6-(2-Formylphenyl)-2-naphthalenecarboximidamide] showed a pIC50 under setting [2] of 5.21. `N=C(N)c1ccc2cc(Oc3ccccc3C=O)ccc2c1` [Example 49, 6-(2-Formylphenoxy)-2-naphthalenecarboximidamide] had a pIC50 under setting [2] of 5.48.

Under setting [2], `CCOC(=O)NC(=N)c1ccc2cc(C3CC3c3ccccc3)ccc2c1` (centres unmarked) [Example 216, N-(ethoxycarbonyl)-6-(2-phenyl-1-cyclopropyl)-2-naphthalenecarboximidamide] showed a pIC50 below 4.52.

For “6-(aminoiminomethyl)-N-(3, 4, 5-trimethoxyphenyl)-2-naphthalenecarboxamide [Example 195]”, the pIC50 under setting [1] is 5.89. On to `N=C(N)c1ccc2cc(C(=O)Nc3cccc(OCc4ccccc4)c3)ccc2c1` [Example 222], for which the pIC50 under setting [1] is 6.46.

Turning to “6-(aminoiminomethyl)-N-(6-quinolinyl)-2-naphthalenecarboxamide [Example 202]”, the pIC50 under setting [1] was 6.10. `N=C(N)c1ccc2cc(C#Cc3ccc(CO)cc3)ccc2c1` [Example 126, 6-[[4-(hydroxymethyl)phenyl]ethynyl]-2-naphthalenecarboximidamide] showed a pIC50 under setting [2] of 6.06.

As for `COc1ccc2ccc(C(=N)N)cc2c1NCc1ccccc1` [Example 101, 7-methoxy-8-[(phenylmethyl)amino]-2-naphthalenecarboximidamide], the pIC50 under setting [2] is 6.10. Regarding “6-(aminoiminomethyl)-N-(pyrazinyl)-2-naphthalenecarboxamide [Example 193]”, the pIC50 under setting [1] is 6.07. The compound `N=C(N)c1ccc2cc(C#CCc3ccccc3)ccc2c1` [Example 33, 6-(3-Phenyl-1-propynyl)-2-naphthalenecarboximidamide] had a pIC50 under setting [2] of 5.62. The same measure, in the same setting: for `CCCOc1ccc2ccc(C(=N)N)cc2c1I` [Example 43, 7-Propoxy-8-iodo-2-naphthalenecarboximidamide] the value was 5.66. With `CC(C)(C)OC(=O)NCc1ccc(C#Cc2ccc3cc(C(=N)N)ccc3c2)cc1` [Example 123, 1,1-dimethylethyl [[4-[[6-(aminoiminomethyl)-2-naphathalenyl]ethynyl]phenyl]methyl]carbamate], the pIC50 under setting [1] is 5.91. On the same count and under the same terms, with “6-(aminoiminomethyl)-N-(3-phenoxyphenyl)-2-naphthalenecarboxamide [Example 221]” the figure was 6.28. The same measure, in the same setting: for “6-(aminoiminomethyl)-N-(5-methyl-2-pyridinyl)-2-naphthalenecarboxamide [Example 198]” the value was 6.30; for “6-(aminoiminomethyl)-N-(1,2,3,4-tetrahydro-6-quinolinyl)-2-naphthalenecarboxamide [Example 147]”, 6.67. Same read-out and setting: for “Methyl [7-(aminoiminomethyl)-1-naphthalenyl)carbamate [Example 16]” the value was 7.52. `CC(C)CC#Cc1ccc2cc(C(=N)N)ccc2c1` [Example 31, 6-(4-Methyl-1-pentynyl)-2-naphthalenecarboximidamide] showed a pIC50 under setting [2] of 5.53. For the compound `N=C(N)c1ccc2cc(CCc3ccccc3)ccc2c1` [Example 42, 6-[2-(Phenyl)ethyl]-2-naphthalenecarboximidamide], the pIC50 under setting [1] was 5.68. In the case of `COc1ccc2ccc(C(=N)N)cc2c1Oc1c(F)c(F)c(F)c(F)c1F` [Example 67, 7-Methoxy-8-pentafluorophenoxy-2-naphthalenecarboximidamide], the pIC50 under setting [1] was 5.56. For the compound `COc1ccc2ccc(C(=N)N)cc2c1Oc1ccc([N+](=O)[O-])cc1` [Example 66, 7-Methoxy-8-(4-nitrophenoxy)-2-naphthalenecarboximidamide], the pIC50 under setting [2] is 5.50. On the same count and under the same terms, with `COc1ccc(C#Cc2ccc3cc(C(=N)N)ccc3c2)cc1CCN` [Example 125, 6-[[3-(2-aminoethyl)-4-methoxyphenyl]ethynyl]-2-naphthalenecarboximidamide] the figure was 6.64. In the case of “6-(aminoiminomethyl)-4-(3-furanyl)-N-phenyl-2-naphthalenecarboxamide [Example 152]”, the pIC50 under setting [1] was 7.08. Turning to `[H]/N=C(/N)c1ccc2cc(C=Cc3ccc(CN(C)C)cc3)ccc2c1` [Example 107, (E)-6-[2-[[4-(dimethylamino)methyl]phenyl]ethenyl]-2-naphthalenecarboximidamide], the pIC50 under setting [1] was 5.63. For `COc1ccc(CCCOc2c(OC)ccc3ccc(C(=N)N)cc23)cc1OC` [Example 24], the pIC50 under setting [2] was 5.31. Regarding “6-(aminoiminomethyl)-N-(4-methyl-2-thiazolyl)-2-naphthalenecarboxamide [Example 199]”, the pIC50 under setting [1] is 5.64. Turning to `[H]/N=C(/N)c1ccc2cc(C=Cc3ccc([C@@H](N)CO)cc3)ccc2c1` [Example 105, (E)-6-[2-[4-(1R-amino-2-hydroxyethyl)phenyl]ethenyl]-2-naphthalenecarboximidamide], the pIC50 under setting [2] is 6.08. Turning to “6-[amino(ethoxycarbonyl)imino]-N-[3-(1-methylethoxy)phenyl]-2-naphthalenecarboxamide [Example 226]”, the pIC50 under setting [1] is below 4.52.

Take “6-[2-(2-Thiomethoxoxyethyl)phenyl]naphthalene-2-carboximidamide [Example 58]”: the pIC50 under setting [1] is 5.60. Still for that read-out and setting: for “N-[7-(aminoiminomethyl)-1-naphthalenyl]-1,3-benzodioxole-5-carboxamide [Example 19]” the value was 5.66; for “4-[(6-Aminoiminomethyl-2-naphthalenyl)oxy]-N-methylbenzeneacetamide [Example 56]”, 5.54. On the same count and under the same terms, for `COC(=O)CCCCOc1ccc2ccc(C(=N)N)cc2c1` [Example 119, methyl 5-[7-[(aminoiminomethyl)-2-naphthalenyl]oxy]pentanoate] the value was 5.36; for “N-[7-(aminoiminomethyl)-1-naphthalenyl]-2-hydroxyacetamide [Example 162]”, 5.88; for “Methyl 3-[[7-(aminoiminomethyl)-1-naphthalenyl]amino]-3-oxopropionate [Example 17]”, 5.37. For the compound `COc1cc2ccc(C(=N)N)cc2cc1OC` [Example 3, 6,7-dimethoxy-2-naphthalenecarboximidamide], the pIC50 under setting [2] was 4.44. On the same count and under the same terms, for `N=C(NO)c1ccc2cccc(Nc3ncccn3)c2c1` [Example 177, N-hydroxy-8-(2-pyrimidinylamino)-2-naphthalenecarboximidamide] the value was 4.83.

For “6-(aminoiminomethyl)-N-(1H-indazol-6-yl)-2-naphthalenecarboxamide [Example 203]”, under setting [1], the pIC50 is 6.20. The compound `COc1ccc2ccc(C(=N)N)cc2c1-c1cn[nH]c1` [Example 53, 7-Methoxy-8-(1H-pyrazol-4-yl)-2-naphthalenecarboximidamide] showed a pIC50 under setting [2] of 5.53. Regarding `CCCSc1cc(-c2cc(C(=O)Nc3ccccc3)cc3ccc(C(=N)N)cc23)co1` [Example 201], under setting [1], the pIC50 is 7.11. Consider “N-[7-(aminoiminomethyl )-1-naphthalenyl]urea [Example 161]”, for which the pIC50 under setting [1] is 5.80. Take “6-(aminoiminomethyl)-N-[3-(cyclopentyloxy)phenyl]-2-naphthalenecarboxamide [Example 220]”: under setting [1], the pIC50 is 7.52. Same read-out and setting: with `N=C(N)c1ccc2cc(C(=O)Nc3ccc(N)cc3)ccc2c1` [Example 9] the figure was 5.96; with “N-(6-Aminoiminomethyl-2-naphthalenyl)-N′-isopropylurea [Example 71]”, 5.62. For `N=C(N)c1ccc2cc(C(=O)Nc3ncc(Br)s3)ccc2c1` [Example 197], the pIC50 under setting [1] was 5.69. On the same count and under the same terms, for “6-(aminoiminomethyl)-N-(2-thiazolyl)-2-naphthalenecarboxamide [Example 186]” the value was 5.53; for `COC(=O)Nc1cc(C(=O)OC)cc2ccc(C(=N)N)cc12` [Example 26, methyl 6-(aminoiminomethyl)-4-[(methoncarbonyl)amino]-2-naphthalenecarboxylate], 7.40. Take `COc1ccc2ccc(C(=N)N)cc2c1C1=CC(=O)CC1` [Example 131, 7-methoxy-8-(3-oxo-1-cyclopenten-1-yl)-2-naphthalenecarboximidamide]: the pIC50 under setting [2] is 5.38.
